Test results from patent US20180318383A1, “PEPTIDE HAVING NEURONAL LOSS PREVENTION AND REGENERATION EFFECTS, AND COMPOSITION CONTAINING SAME” (GEMVAX & KAEL CO., LTD., priority 2015, published 2018).

Legend:
NSCs [1] = assay: Mitochondria cell membrane potential (JC-1); assay type: cell-based, rat; settings: 20 μM Aβ25-35 + PEP1 1, 10, 50 μM, 48 hours
Protocol: NSCs were plated in a 96-well plate at a density of 5×10^5 cells/well. The cells were treated with 20 μM Aβ25-30 and each concentration of PEP1 (1, 10 or 50 μM) at 37° C. for 48 hours.
The mitochondria cell membrane potential was measured using a JC-1 mitochondria cell membrane potential observation kit. The mitochondria cell membrane potential was observed using an ELISA reader. […] By observing dead cells or unhealthy cells at an FITC wavelength, it was confirmed that JC-1 is in a monomer state.

NSCs [2] = assay: ATP assay; assay type: cell-based, rat; settings: 20 μM Aβ25-35 + PEP1
From the text: An ATP concentration was observed using an ATP determination kit and evaluated by an ELISA reader.

[3] = numerous clinical trials targeting various diseases; cited from earlier work
neuronal apoptosis = assay: Oxygen-glucose deprivation (OGD), in vitro model of ischemic stroke; assay type: cell-based
NSCs [4] = assay: Cell viability of NSCs (CCK-8, MTT, LDH); assay type: cell-based, rat; settings: 48 hours
Protocol: NSCs were isolated from the brain of a rat embryo, cultured and developed. The NSC culture was performed in the same manner as to be described below. Briefly describing, a rat embryo was obtained on day 13 of the embryonic period, and the brain was quickly removed and placed in a petri dish containing cold phosphate-buffered physiological saline (Hank's balanced salt solution; HBSS).
Single cells were isolated from the cerebral cortex, the lateral ganglion eminence, and the embryonic midbrain. These cells were put into a dish pre-treated with L-ornithine and fibronectin, containing calcium and magnesium-free phosphate-buffered physiological saline (PBS) at a density of 20,000 cells/cm^2. In addition, the cells were cultured in an N2 medium (DMEM F/12, […] insulin, 100 mg/L transferrin, 30 nM selenite, […], 20 nM progesterone, 0.2 mM ascorbic acid, […], 8.6 mM D(+) glucose, and […]). The culture was maintained in humidified and 5% CO2 conditions for 4 to 6 days at 37° C.
NSCs were divided into 6 samples, and each sample was treated with […] Aβ25-30 oligomers for 48 hours to identify a suitable concentration. […] Briefly, Aβ25-30 was dissolved in hexafluoroisopropanol to reach a concentration of 1 mM. In addition, the prepared solution was dispensed using a sterilized ultramicrocentrifuge tube. […]
To identify the PEP1 effect in NSCs, PEP1 was treated at various concentrations of 0, 1, 10, 50, 100, and 200 μM for 48 hours. […] The plate was gently washed with PBS several times, and cell viability was measured using a cell counting kit-8 (CCK-8), MTT and lactate dehydrogenase (LDH).
CCK-8 was used as a method for counting living cells by bonding 2-[2-methoxy-4-nitrophenyl]-3-[4-nitrophenyl]-5-[2,4-disulfophenyl]-2H-tetrazolium, monosodium salt (WST-8) with 1-methoxyphenazinium methylsulfate (PMS). […] Cell viability was evaluated by measuring absorbance at 450 nm. […] Cell viability was evaluated by measuring absorbance at 490 nm and reference absorbance at 690 nm. […]

NSCs [5] = assay: Cell migration assay (QCM-24-well kit); assay type: cell-based, rat; settings: 20 μM Aβ25-35 + PEP1 1, 10, 50 μM
Protocol: A cell migration assay was carried out using a QCM-24-well cell migration kit. Briefly, 20 μM Aβ25-30 and each concentration of PEP1 (1, 10 or 50 μM) were added to a lower chamber, and 3×10^5 NSCs were cultured in an upper chamber at 37° C. for 24 hours. NSCs migrated toward the membrane, and after staining to observe the number of migrating cells, absorbance was measured at 560 nm.

EARPALLTSRLRFIPK (homo sapiens) [PEP1, hTERT-derived peptide consisting of 16 amino acids, telomerase location [611-626]]
mitochondria cell membrane potential (NSCs [1]): restored the cell membrane potential up to a level in a normal range | ATP level (NSCs [2]): significantly restored | toxicity / side effects [3]: stable in terms of side effects | neuronal apoptosis caused by oxygen-glucose deprivation (OGD) (neuronal apoptosis): inhibiting neuronal apoptosis | survival ability of NSCs (NSCs [4]; 20 μM Aβ25-35 + PEP1 up to 100 μM, vs 20 μM Aβ25-35 only, MTT, CCK-8, LDH): gradually increased | cell survival ability (NSCs [4]; NSCs, PEP1 alone 0-200 μM, CCK-8, up to 100 μM): not influenced | migration ability of NSCs (NSCs [5]): effectively restored migration
